This passage reports MIC and Ratio results from ChEMBL document CHEMBL5625187, “A facile and selective derivatization approach on kynurenine-NH2 in daptomycin, leading to the discovery of hexakynomycin to combat multidrug-resistant Gram-positive pathogens especially daptomycin-resistant bacteria” (Eur J Med Chem, 2023).

Where only a bound is given, the exact number is not on record here.

Common to all, as to format: functional
The test system of assay [1] is Enterococcus faecium. Briefly: Antibacterial activity against glycopeptide-resistant Enterococcus faecium Efm-HS-0649 assessed as reduction in microbial growth incubated for 24 hrs by broth microdilution method.
In assay [2] the test system is Staphylococcus aureus. Briefly: Antibacterial activity against methicillin-resistant Staphylococcus aureus USA300 assessed as reduction in microbial growth incubated for 24 hrs by broth microdilution method.
The subject of assay [3] is Staphylococcus aureus. Briefly: Antibacterial activity against methicillin-susceptible Staphylococcus aureus Newman ATCC 25904 assessed as reduction in microbial growth incubated for 24 hrs by broth microdilution method.
The test system of assay [4] is Staphylococcus aureus. Briefly: Antibacterial activity against vancomycin-intermediate resistant Staphylococcus aureus Mu 50 assessed as reduction in microbial growth incubated for 24 hrs by broth microdilution method.
Assay [5] has as its system Staphylococcus aureus. Briefly: Potency index, ratio of daptomycin MIC to test compound MIC for antibacterial activity against methicillin-susceptible Staphylococcus aureus Newman ATCC 25904.
For assay [6], the system named is Enterococcus faecium. Briefly: Potency index, ratio of daptomycin MIC to test compound MIC for antibacterial activity against glycopeptide-resistant Enterococcus faecium Efm-HS-0649.

With `CCCCCCCCCC(=O)N[C@@H](Cc1c[nH]c2ccccc12)C(=O)N[C@H](CC(N)=O)C(=O)N[C@@H](CC(=O)O)C(=O)N[C@@H]1C(=O)NCC(=O)N[C@@H](CCCN)C(=O)N[C@@H](CC(=O)O)C(=O)N[C@H](C)C(=O)N[C@@H](CC(=O)O)C(=O)NCC(=O)N[C@H](CO)C(=O)N[C@@H]([C@H](C)CC(=O)O)C(=O)N[C@@H](CC(=O)c2ccccc2NCc2ccc3c(c2)CCO3)C(=O)O[C@@H]1C`, the MIC in the assay on Enterococcus faecium [1] was determined as 2 µg/mL; in the assay with Staphylococcus aureus [2] it was 1 µg/mL; with Staphylococcus aureus [3] it was 1 µg/mL; in the assay with Staphylococcus aureus [4] it was 4 µg/mL.

Regarding `CCCCCCCCCC(=O)N[C@@H](Cc1c[nH]c2ccccc12)C(=O)N[C@H](CC(N)=O)C(=O)N[C@@H](CC(=O)O)C(=O)N[C@@H]1C(=O)NCC(=O)N[C@@H](CCCN)C(=O)N[C@@H](CC(=O)O)C(=O)N[C@H](C)C(=O)N[C@@H](CC(=O)O)C(=O)NCC(=O)N[C@H](CO)C(=O)N[C@@H]([C@H](C)CC(=O)O)C(=O)N[C@@H](CC(=O)c2ccccc2NCCC2C(=O)C=CC2=O)C(=O)O[C@@H]1C` (single isomer, unassigned), the minimum inhibitory concentration (MIC) with Enterococcus faecium [1] is 128 µg/mL; in the assay on Staphylococcus aureus [2], 128 µg/mL; in the assay with Staphylococcus aureus [3] it was 128 µg/mL; with Staphylococcus aureus [4], greater than 128 µg/mL.

With `CCCCCCCCCC(=O)N[C@@H](Cc1c[nH]c2ccccc12)C(=O)N[C@H](CC(N)=O)C(=O)N[C@@H](CC(=O)O)C(=O)N[C@@H]1C(=O)NCC(=O)N[C@@H](CCCN)C(=O)N[C@@H](CC(=O)O)C(=O)N[C@H](C)C(=O)N[C@@H](CC(=O)O)C(=O)NCC(=O)N[C@H](CO)C(=O)N[C@@H]([C@H](C)CC(=O)O)C(=O)N[C@@H](CC(=O)c2ccccc2NCCCC)C(=O)O[C@@H]1C` (single isomer, unassigned), the MIC is 1 µg/mL with Enterococcus faecium [1], 0.5 µg/mL with Staphylococcus aureus [2], 0.5 µg/mL with Staphylococcus aureus [3] and 4 µg/mL in the assay on Staphylococcus aureus [4]. In addition, the Ratio with Staphylococcus aureus [5] and with Enterococcus faecium [6] was 2 each time.

On to `CCCCCCCCCC(=O)N[C@@H](Cc1c[nH]c2ccccc12)C(=O)N[C@H](CC(N)=O)C(=O)N[C@@H](CC(=O)O)C(=O)N[C@@H]1C(=O)NCC(=O)N[C@@H](CCCN)C(=O)N[C@@H](CC(=O)O)C(=O)N[C@H](C)C(=O)N[C@@H](CC(=O)O)C(=O)NCC(=O)N[C@H](CO)C(=O)N[C@@H]([C@H](C)CC(=O)O)C(=O)N[C@@H](CC(=O)c2ccccc2NCCCCCCC)C(=O)O[C@@H]1C` (single isomer, unassigned), for which the MIC in the assay with Enterococcus faecium [1] was determined as 0.25 µg/mL; in the assay with Staphylococcus aureus [2] it was 0.25 µg/mL; in the assay with Staphylococcus aureus [3], 0.5 µg/mL; in the assay on Staphylococcus aureus [4], 2 µg/mL. For the same molecule, the Ratio in the assay with Staphylococcus aureus [5] and in the assay with Enterococcus faecium [6] was 2 throughout.

For the molecule `CCCCCCCCCC(=O)N[C@@H](Cc1c[nH]c2ccccc12)C(=O)N[C@H](CC(N)=O)C(=O)N[C@@H](CC(=O)O)C(=O)N[C@@H]1C(=O)NCC(=O)N[C@@H](CCCN)C(=O)N[C@@H](CC(=O)O)C(=O)N[C@H](C)C(=O)N[C@@H](CC(=O)O)C(=O)NCC(=O)N[C@H](CO)C(=O)N[C@@H]([C@H](C)CC(=O)O)C(=O)N[C@@H](CC(=O)c2ccccc2NCc2ccccn2)C(=O)O[C@@H]1C`, the MIC came to 8 µg/mL with Enterococcus faecium [1], 4 µg/mL with Staphylococcus aureus [2], 8 µg/mL in the assay on Staphylococcus aureus [3] and 32 µg/mL in the assay with Staphylococcus aureus [4]. Further, the Ratio in the assay on Staphylococcus aureus [5] and in the assay on Enterococcus faecium [6] was 8 throughout.

In the case of `CCCCCCCCCC(=O)N[C@@H](Cc1c[nH]c2ccccc12)C(=O)N[C@H](CC(N)=O)C(=O)N[C@@H](CC(=O)O)C(=O)N[C@@H]1C(=O)NCC(=O)N[C@@H](CCCN)C(=O)N[C@@H](CC(=O)O)C(=O)N[C@H](C)C(=O)N[C@@H](CC(=O)O)C(=O)NCC(=O)N[C@H](CO)C(=O)N[C@@H]([C@H](C)CC(=O)O)C(=O)N[C@@H](CC(=O)c2ccccc2NCC)C(=O)O[C@@H]1C` (single isomer, unassigned), the MIC in the assay on Enterococcus faecium [1] stood at 1 µg/mL; in the assay with Staphylococcus aureus [2], 1 µg/mL; in the assay on Staphylococcus aureus [3] it was 1 µg/mL; with Staphylococcus aureus [4], 4 µg/mL. Besides, the Ratio in the assay with Staphylococcus aureus [5] and in the assay on Enterococcus faecium [6] was 2 each time.

As for `CCCCCCCCCC(=O)N[C@@H](Cc1c[nH]c2ccccc12)C(=O)N[C@H](CC(N)=O)C(=O)N[C@@H](CC(=O)O)C(=O)N[C@@H]1C(=O)NCC(=O)N[C@@H](CCCN)C(=O)N[C@@H](CC(=O)O)C(=O)N[C@H](C)C(=O)N[C@@H](CC(=O)O)C(=O)NCC(=O)N[C@H](CO)C(=O)N[C@@H]([C@H](C)CC(=O)O)C(=O)N[C@@H](CC(=O)c2ccccc2NCc2ccccc2)C(=O)O[C@@H]1C`, the MIC turned out to be 1 µg/mL with Enterococcus faecium [1], 0.5 µg/mL with Staphylococcus aureus [2], 0.5 µg/mL in the assay with Staphylococcus aureus [3] and 4 µg/mL in the assay with Staphylococcus aureus [4]. Moreover, the Ratio with Staphylococcus aureus [5] and in the assay on Enterococcus faecium [6] was 4 throughout.

Regarding `CCCCCCCCCC(=O)N[C@@H](Cc1c[nH]c2ccccc12)C(=O)N[C@H](CC(N)=O)C(=O)N[C@@H](CC(=O)O)C(=O)N[C@@H]1C(=O)NCC(=O)N[C@@H](CCCN)C(=O)N[C@@H](CC(=O)O)C(=O)N[C@H](C)C(=O)N[C@@H](CC(=O)O)C(=O)NCC(=O)N[C@H](CO)C(=O)N[C@@H]([C@H](C)CC(=O)O)C(=O)N[C@@H](CC(=O)c2ccccc2NCC(=O)O)C(=O)O[C@@H]1C`, the minimum inhibitory concentration (MIC) in the assay on Enterococcus faecium [1] is 128 µg/mL; with Staphylococcus aureus [2] it was 32 µg/mL; in the assay with Staphylococcus aureus [3] it was 32 µg/mL; in the assay with Staphylococcus aureus [4], 128 µg/mL.

For the molecule `CCCCCCCCCC(=O)N[C@@H](Cc1c[nH]c2ccccc12)C(=O)N[C@H](CC(N)=O)C(=O)N[C@@H](CC(=O)O)C(=O)N[C@@H]1C(=O)NCC(=O)N[C@@H](CCCN)C(=O)N[C@@H](CC(=O)O)C(=O)N[C@H](C)C(=O)N[C@@H](CC(=O)O)C(=O)NCC(=O)N[C@H](CO)C(=O)N[C@@H]([C@H](C)CC(=O)O)C(=O)N[C@@H](CC(=O)c2ccccc2NCCCCC)C(=O)O[C@@H]1C` (single isomer, unassigned), the MIC is 0.5 µg/mL with Enterococcus faecium [1], 0.125 µg/mL in the assay on Staphylococcus aureus [2], 0.5 µg/mL in the assay on Staphylococcus aureus [3] and 2 µg/mL with Staphylococcus aureus [4]. The Ratio with Staphylococcus aureus [5] and with Enterococcus faecium [6] was 2 throughout.

On to `CCCCCCCCCC(=O)N[C@@H](Cc1c[nH]c2ccccc12)C(=O)N[C@H](CC(N)=O)C(=O)N[C@@H](CC(=O)O)C(=O)N[C@@H]1C(=O)NCC(=O)N[C@@H](CCCN)C(=O)N[C@@H](CC(=O)O)C(=O)N[C@H](C)C(=O)N[C@@H](CC(=O)O)C(=O)NCC(=O)N[C@H](CO)C(=O)N[C@@H]([C@H](C)CC(=O)O)C(=O)N[C@@H](CC(=O)c2ccccc2NC)C(=O)O[C@@H]1C`, for which the MIC in the assay on Enterococcus faecium [1] was determined as 4 µg/mL; in the assay on Staphylococcus aureus [2] it was 1 µg/mL; with Staphylococcus aureus [3] it was 1 µg/mL; in the assay on Staphylococcus aureus [4] it was 4 µg/mL. Moreover, the Ratio in the assay with Staphylococcus aureus [5] and in the assay on Enterococcus faecium [6] was 2 in each case.

For the molecule `CCCCCCCCCC(=O)N[C@@H](Cc1c[nH]c2ccccc12)C(=O)N[C@H](CC(N)=O)C(=O)N[C@@H](CC(=O)O)C(=O)N[C@@H]1C(=O)NCC(=O)N[C@@H](CCCN)C(=O)N[C@@H](CC(=O)O)C(=O)N[C@H](C)C(=O)N[C@@H](CC(=O)O)C(=O)NCC(=O)N[C@H](CO)C(=O)N[C@@H]([C@H](C)CC(=O)O)C(=O)N[C@@H](CC(=O)c2ccccc2NCCCSC)C(=O)O[C@@H]1C` (single isomer, unassigned), the MIC stood at 1 µg/mL with Enterococcus faecium [1], 0.5 µg/mL in the assay on Staphylococcus aureus [2], 1 µg/mL with Staphylococcus aureus [3] and 4 µg/mL in the assay with Staphylococcus aureus [4].

Take `CCCCCCCCCC(=O)N[C@@H](Cc1c[nH]c2ccccc12)C(=O)N[C@H](CC(N)=O)C(=O)N[C@@H](CC(=O)O)C(=O)N[C@@H]1C(=O)NCC(=O)N[C@@H](CCCN)C(=O)N[C@@H](CC(=O)O)C(=O)N[C@H](C)C(=O)N[C@@H](CC(=O)O)C(=O)NCC(=O)N[C@H](CO)C(=O)N[C@@H]([C@H](C)CC(=O)O)C(=O)N[C@@H](CC(=O)c2ccccc2NCCC[S+](C)CC(O)CC)C(=O)O[C@@H]1C` (single isomer, unassigned): the MIC in the assay on Enterococcus faecium [1], in the assay on Staphylococcus aureus [2], with Staphylococcus aureus [3] and in the assay with Staphylococcus aureus [4] was greater than 128 µg/mL throughout.

For `C#CC[S+](C)CCCNc1ccccc1C(=O)C[C@@H]1NC(=O)[C@H]([C@H](C)CC(=O)O)NC(=O)[C@@H](CO)NC(=O)CNC(=O)[C@H](CC(=O)O)NC(=O)[C@@H](C)NC(=O)[C@H](CC(=O)O)NC(=O)[C@H](CCCN)NC(=O)CNC(=O)[C@@H](NC(=O)[C@H](CC(=O)O)NC(=O)[C@@H](CC(N)=O)NC(=O)[C@H](Cc2c[nH]c3ccccc23)NC(=O)CCCCCCCCC)[C@@H](C)OC1=O` (some centres undefined), the MIC in the assay with Enterococcus faecium [1] is 128 µg/mL; in the assay on Staphylococcus aureus [2], 128 µg/mL; in the assay with Staphylococcus aureus [3], 128 µg/mL; with Staphylococcus aureus [4] it was greater than 128 µg/mL.

On to `CCCCCCCCCC(=O)N[C@@H](Cc1c[nH]c2ccccc12)C(=O)N[C@H](CC(N)=O)C(=O)N[C@@H](CC(=O)O)C(=O)N[C@@H]1C(=O)NCC(=O)N[C@@H](CCCN)C(=O)N[C@@H](CC(=O)O)C(=O)N[C@H](C)C(=O)N[C@@H](CC(=O)O)C(=O)NCC(=O)N[C@H](CO)C(=O)N[C@@H]([C@H](C)CC(=O)O)C(=O)N[C@@H](CC(=O)c2ccccc2NCCC[S+](C)[O-])C(=O)O[C@@H]1C` (some centres undefined), for which the minimal inhibitory concentration (MIC) in the assay with Enterococcus faecium [1] is 128 µg/mL; in the assay with Staphylococcus aureus [2], 128 µg/mL; in the assay with Staphylococcus aureus [3], 128 µg/mL; with Staphylococcus aureus [4], greater than 128 µg/mL.

As for `CCCCCCCCCC(=O)N[C@@H](Cc1c[nH]c2ccccc12)C(=O)N[C@H](CC(N)=O)C(=O)N[C@@H](CC(=O)O)C(=O)N[C@@H]1C(=O)NCC(=O)N[C@@H](CCCN)C(=O)N[C@@H](CC(=O)O)C(=O)N[C@H](C)C(=O)N[C@@H](CC(=O)O)C(=O)NCC(=O)N[C@H](CO)C(=O)N[C@@H]([C@H](C)CC(=O)O)C(=O)N[C@@H](CC(=O)c2ccccc2NCC2CCCCC2)C(=O)O[C@@H]1C` (single isomer, unassigned), the MIC with Enterococcus faecium [1] was determined as 1 µg/mL; with Staphylococcus aureus [2], 0.5 µg/mL; in the assay on Staphylococcus aureus [3] it was 1 µg/mL; with Staphylococcus aureus [4] it was 4 µg/mL.
